Experimental data from PubChem BioAssay AID248 (DTP/NCI, 2004).
Inconclusive results and toxic doses are left out. Rule as the data show it: active = T/C of 150% or more; inactive = T/C below 125%.

System: L1210 leukemia ip in BDF1 mice, survival T/C
Assay: NCI In Vivo Anticancer Drug Screen. Data for tumor model L1210 Leukemia (intraperitoneal) in B6D2F1 (BDF1) mice
Conditions: endpoint: mean survival time, higher = longer survival
How it was run: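 Mice bearing the transplanted tumor received compound or vehicle. Survival of the treated group was divided by that of the vehicle-treated control group to give the ratio.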

[1] = dose: 100.0 mg/kg/injection, schedule: Q01DX001 (ip), vehicle: carboxymethylcellulose (CMC)
[2] = dose: 200.0 mg/kg/injection, schedule: Q01DX001 (ip), vehicle: carboxymethylcellulose (CMC)
[3] = dose: 400.0 mg/kg/injection, schedule: Q01DX001 (ip), vehicle: carboxymethylcellulose (CMC)
[4] = dose: 100.0 mg/kg/injection, schedule: Q04DX003 (ip), vehicle: saline with Tween-80
[5] = dose: 200.0 mg/kg/injection, schedule: Q04DX003 (ip), vehicle: saline with Tween-80
[6] = dose: 400.0 mg/kg/injection, schedule: Q04DX003 (ip), vehicle: saline with Tween-80
[7] = dose: 100.0 mg/kg/injection, schedule: Q01DX009 (ip), vehicle: water
[8] = dose: 100.0 mg/kg/injection, schedule: Q04DX003 (ip), vehicle: water
[9] = dose: 200.0 mg/kg/injection, schedule: Q04DX003 (ip), vehicle: water

Measured: T/C

CCOc1cc[n+](C)c2ccc(C)cc12
inactive: dose: 6.25 mg/kg/injection, schedule: Q04DX002 (ip), vehicle: saline with Tween-80 102 % of control | dose: 12.5 mg/kg/injection, schedule: Q04DX002 (ip), vehicle: saline with Tween-80 98 % of control

CCOC1(OCC)CCC2(CC1)c1ccccc1-c1ccccc12
inactive: dose: 100.0 mg/kg/injection, schedule: Q04DX003 (ip), vehicle: Klucel (hydroxypropylcellulose) (HPC) 92 % of control | dose: 200.0 mg/kg/injection, schedule: Q04DX003 (ip), vehicle: Klucel (hydroxypropylcellulose) (HPC) 93 % of control | dose: 400.0 mg/kg/injection, schedule: Q04DX003 (ip), vehicle: Klucel (hydroxypropylcellulose) (HPC) 95 % of control

Nc1cc(Cl)cc2[nH]c(=O)c3cc(Cl)ccc3c12
inactive: [1] 100 % of control | [2] 102 % of control | [3] 95 % of control

C=CCc1ccc(OCC(=O)O)c(OC)c1
inactive: [4] 106 % of control | [5] 93 % of control | [6] 97 % of control

COC(=O)Cc1c[nH]c(=O)[nH]c1=O
inactive: [7] 102 % of control | [8] 93 % of control | dose: 200.0 mg/kg/injection, schedule: Q01DX009 (ip), vehicle: water 98 % of control | [9] 104 % of control | dose: 400.0 mg/kg/injection, schedule: Q04DX003 (ip), vehicle: water 95 % of control

CC1(Cl)C(=O)NC(=O)NC1=O
inactive: dose: 25.0 mg/kg/injection, schedule: Q04DX003 (ip), vehicle: saline 96 % of control | dose: 50.0 mg/kg/injection, schedule: Q04DX003 (ip), vehicle: saline 96 % of control

CCCCCCCCCCCCCCC[N+](C)(C)C
inactive: dose: 12.5 mg/kg/injection, schedule: Q01DX009 (ip), vehicle: saline 102 % of control | dose: 25.0 mg/kg/injection, schedule: Q01DX009 (ip), vehicle: saline 93 % of control

CN(C)S(=O)(=O)c1ccccc1C1(O)CCCCC1
inactive: dose: 100.0 mg/kg/injection, schedule: Q01DX009 (ip), vehicle: other 87 % of control | [4] 91 % of control | dose: 200.0 mg/kg/injection, schedule: Q01DX009 (ip), vehicle: other 94 % of control | [5] 102 % of control | dose: 400.0 mg/kg/injection, schedule: Q01DX009 (ip), vehicle: other 97 % of control | [6] 109 % of control

COc1ccc(C2=NC(=O)C(C(=O)c3ccccc3)O2)cc1 (stereo unspecified)
inactive: dose: 100.0 mg/kg/injection, schedule: Q01DX001 (ip), vehicle: saline 94 % of control | dose: 200.0 mg/kg/injection, schedule: Q01DX001 (ip), vehicle: saline 96 % of control | dose: 400.0 mg/kg/injection, schedule: Q01DX001 (ip), vehicle: saline 96 % of control

COc1ccc(-c2c3c(cc4cc(OC)c(OC)cc24)C(=O)OC3=O)cc1OC
inactive: [1] 93 % of control | [2] 89 % of control | [3] 89 % of control

CN(Cc1ccc2nc(N)[nH]c(=O)c2c1)c1ccc(C(=O)NC(CCC(=O)O)C(=O)O)cc1 (stereo unspecified)
inactive: dose: 50.0 mg/kg/injection, schedule: Q01DX009 (ip), vehicle: water 104 % of control | [7] 113 % of control | [8] 108 % of control | [9] 100 % of control
